Assay results as given in patent US20040253265A1, “Biological compositions and methods for treatment of bladder cancer” (priority 2003, published 2004).

Legend:
[1] = tested on: BBN-induced T739 bladder cancer cells (murine bladder transitional cell line BTT739); experiment: Tumor growth in T739 mice with transplanted bladder cancer cells (Example 6); format: in vivo, mouse; conditions: tumor-bearing T739 mice; 30 consecutive days of treatment (yeast 0.3 ml oral once per day; TSPA 1.5 mg/kg/day i.v.); sacrificed on 31st day
Method: The mice injected with tumor cells were kept for 5 days and then were divided into 4 experimental groups of ten mice per group and one control group. The four experimental groups were triplicated (i.e., using a total of 120 mice in the experimental groups).
The mice in group CK2 also started receiving saline on the same day as the other four groups. […] The weight of the mice and the weight of the tumor were determined by standard techniques.

[2] = tested on: BBN-induced T739 bladder cancer cells (murine bladder transitional cell line BTT739); experiment: Survival of T739 mice with transplanted bladder cancer cells (Example 7); format: in vivo; conditions: for Number of live animals remaining in the groups after 30 days of treatment: 30 mice per group
Method: The following example illustrates the benefit of a biological composition of the invention in a mouse model of human bladder cancer based on a murine bladder transitional cell line BTT739. The survival time of mice after tumor injection and treatment was studied.
(§1) The biological composition comprising 10^8 cells per ml of activated and conditioned yeast cells of the strain Saccharomyces cerevisiae Hansen strain AS2.4 was prepared by the methods described in Sections 5.1 and subsections therein.
The tumors were prepared in a similar manner as described in Sections 6.1.
The animals were prepared in a similar manner as described in Section 6.2.
(§2) The mice injected with tumor cells were kept for 5 days and then were divided into 4 experimental groups of ten mice per group and one control group. The four experimental groups were triplicated (i.e., using a total of 120 mice in the experimental groups). In group 2AY, the mice received 0.3 ml of the biological composition once per day. In group 2NY, the mice received 0.3 ml of the untreated yeast cells once per day. In group 2TSPA, the mice were injected intravenously with 1.5 mg of thiotepa (TSPA) per kg body weight per day. In group 2CK1, the mice received 0.3 ml of physiological saline once per day.
(§3) The mice received a biological composition, untreated yeast cells, TSPA or saline on the same day as the tumor cells were transplanted. The mice in group CK2 also started receiving saline on the same day as the other four groups. The biological composition, untreated yeast cells or saline were administered orally by a feeding tube and the TSPA by intravenous injection for 30 consecutive days. The mice were observed over 6 months from the day of tumor inoculation and survival was recorded. The weight of the mice and the weight of the tumor were determined by standard techniques.
Each of the 30 mice in each group received 30 consecutive days of either untreated yeast cells, TSPA, saline or a biological composition of the invention.

[3] = tested on: bladder cell line BBN; experiment: Tumor growth in Wistar rats with transplanted bladder cancer cells (Example 8); format: in vivo, rat; conditions: tumor-bearing Wistar rats; 30 consecutive days of treatment (yeast 0.3 ml oral once per day; VCR 3 mg/kg/day i.v.); sacrificed on 31st day
Method: The four experimental groups were triplicated (i.e., using a total of 120 rats in the experimental groups).
The weight of the rats and the weight of the tumor were determined by standard techniques.

[4] = tested on: bladder cell line BBN; experiment: Survival of Wistar rats with transplanted bladder cancer cells (Example 9); format: in vivo; conditions: for Number of live animals remaining in the groups after 30 days of treatment: 30 rats per group
Method: The following example illustrates the benefit of a biological composition of the invention in a Wistar rat model of human bladder cancer. The survival time of the rats after tumor injection and treatment was studied.
as §1
The animals were prepared in a similar manner as described in Section 8.1.
as §2, with “rats” for “mice”, “2VCR,” for “2TSPA,”, “3” for “1.5”, “[…] (VCR)” for “thiotepa (TSPA)”
as §3, with “The rats” for “The mice”, “cells, VCR” for “cells, TSPA”, “group 2CK2” for “group CK2”, “cells and” for “cells or”, “the VCR” for “the TSPA”, “the rats” for “the mice”
Each of the 30 rats in each group received 30 consecutive days of either untreated yeast cells, VCR, saline or a biological composition of the invention.

[5] = 0 month after cessation of treatment
[6] = 1 month after cessation of treatment
[7] = 2 months after cessation of treatment
[8] = 3 months after cessation of treatment
[9] = 4 months after cessation of treatment
[10] = 5 months after cessation of treatment
[11] = 6 months after cessation of treatment
[12] = mice that survived the 6 months observation after 30 days of treatment
[13] = rats that survived the 6 months observation after 30 days of treatment

S=P(N1CC1)(N1CC1)N1CC1 [TSPA, thiotepa]
mean weight of mice and standard deviation [1]: 19.5 ± 2.2 g | mean weight of tumor nodules and standard deviation [1]: 3.3 ± 2.1 mg | Number of live animals remaining in the groups after 30 days of treatment [2, 5]: 30 | Number of live animals remaining in the groups after 30 days of treatment [2, 6]: 24 | Number of live animals remaining in the groups after 30 days of treatment [2, 7]: 11 | Number of live animals remaining in the groups after 30 days of treatment [2, 8]: 7 | Number of live animals remaining in the groups after 30 days of treatment [2, 9]: 2 | Number of live animals remaining in the groups after 30 days of treatment [2, 10]: 0 | Number of live animals remaining in the groups after 30 days of treatment [2, 11]: 0 | survival outcome during the experiment ([2]; 30 days of treatment, observed over 6 months): all died during the experiment | mean weight of mice and standard deviation [2, 12]: all animals dead | mean weight of tumor nodules and standard deviation [2, 12]: all animals dead

CC[C@]1(O)C[C@@H]2CN(CCc3c([nH]c4ccccc34)[C@@](C(=O)OC)(c3cc4c(cc3OC)N(C)[C@H]3[C@@](O)(C(=O)OC)[C@H](OC(C)=O)[C@]5(CC)C=CCN6CC[C@]43[C@@H]65)C2)C1 [VCR, vinblastine]
mean weight of rats and standard deviation [3]: 191.3 ± 12.4 g | mean weight of tumor nodules and standard deviation [3]: 2.65 ± 1.7 g | Number of live animals remaining in the groups after 30 days of treatment [4, 5]: 30 | Number of live animals remaining in the groups after 30 days of treatment [4, 6]: 30 | Number of live animals remaining in the groups after 30 days of treatment [4, 7]: 30 | Number of live animals remaining in the groups after 30 days of treatment [4, 8]: 30 | Number of live animals remaining in the groups after 30 days of treatment [4, 9]: 30 | Number of live animals remaining in the groups after 30 days of treatment [4, 10]: 28 | Number of live animals remaining in the groups after 30 days of treatment [4, 11]: 26 | mean weight of rats and standard deviation [4, 13]: all animals dead | mean weight of tumor nodules and standard deviation [4, 13]: all animals dead
